One assay has as its system ALS patients. As to conditions: cited from earlier work.
In assay [1] the test system is G93A amyotrophic lateral sclerosis model mice. The assay is described as follows: Butyrate treated mice model: oral sodium butyrate in drinking water, body weight and survival. It counts as in vivo, mouse. The source says:
Nine G93A mice were divided into a […] (n=4) and a butyrate group (n=5). Butyrate mice started to drink 2% sodium butyrate in the drinking water bottle from age 63 days, without treatment mice drank regular water mice. Without treatment mice died on day 127, 133, 143, 155 separately.
Mice were divided into control and butyrate group. Butyrate group mice were given 2% sodium butyrate (Sigma, St. Louis, Mo.) water ad libitum from age 63 days. The untreated control group was maintained on tap water throughout the experiment. Without treatment mice died on day 127, 133, 143, 155 separately.

Entries after “also recorded” stand apart in the source; their conditions may differ.

In the case of `Nc1nc2ccc(OC(F)(F)F)cc2s1` [Riluzole], in the assay with ALS patients (FDA approved treatment), the patient life span entry is “extends patient life span for only a few months”. Also, the relief of symptoms result in the assay with ALS patients is recorded as “does not relieve symptoms”.
Consider `CCCC(=O)[O-].[Na+]` [sodium butyrate], for which the body weight loss entry in assay [1] (2% sodium butyrate in drinking water ad libitum from age 63 days, n=5, vs untreated G93A mice n=4 (FIG. 4A)) is “prevents body weight loss”. In addition, in assay [1] (2% sodium butyrate in drinking water from age 63 days, relative to untreated mice that died on day 127-155), the “additional survival time of butyrate mice” value is “survived at least one additional month or longer”. Also, the survival result in assay [1] (2% sodium butyrate in drinking water from age 63 days, untreated mice died on day 127, 133, 143, 155 (FIG. 4B)) is given as “extends survival time; also recorded: All the butyrate mice survived”.

The record behind these values is US11141391B2, “Biomarkers for risk assessment, diagnosis and target microbiome and intestinal homeostasis for prevention and treatment of amyotrophic lateral sclerosis” (Rush University Medical Center, priority 2014, dated 2021).
